Measurements from ChEMBL document CHEMBL4507317, “Data for DCP probe BAY-899” (2021).

Columns and labels:
[1] = target: Myosin light chain kinase 2, skeletal/cardiac muscle (Homo sapiens) (UniProt Q9H1R3); details: Compound concentration 1000.0 nM
[2] = target: Serine/threonine-protein kinase NLK (Homo sapiens) (UniProt Q9UBE8); details: Compound concentration 1000.0 nM
[3] = target: Serine/threonine-protein kinase 38 (Homo sapiens) (UniProt Q15208); details: Compound concentration 1000.0 nM
[4] = target: Bone morphogenetic protein receptor type-2 (Homo sapiens) (UniProt Q13873); details: Compound concentration 1000.0 nM
Bone morphogenetic protein receptor type-2 (Homo sapiens), sequence (Q13873 whole entry): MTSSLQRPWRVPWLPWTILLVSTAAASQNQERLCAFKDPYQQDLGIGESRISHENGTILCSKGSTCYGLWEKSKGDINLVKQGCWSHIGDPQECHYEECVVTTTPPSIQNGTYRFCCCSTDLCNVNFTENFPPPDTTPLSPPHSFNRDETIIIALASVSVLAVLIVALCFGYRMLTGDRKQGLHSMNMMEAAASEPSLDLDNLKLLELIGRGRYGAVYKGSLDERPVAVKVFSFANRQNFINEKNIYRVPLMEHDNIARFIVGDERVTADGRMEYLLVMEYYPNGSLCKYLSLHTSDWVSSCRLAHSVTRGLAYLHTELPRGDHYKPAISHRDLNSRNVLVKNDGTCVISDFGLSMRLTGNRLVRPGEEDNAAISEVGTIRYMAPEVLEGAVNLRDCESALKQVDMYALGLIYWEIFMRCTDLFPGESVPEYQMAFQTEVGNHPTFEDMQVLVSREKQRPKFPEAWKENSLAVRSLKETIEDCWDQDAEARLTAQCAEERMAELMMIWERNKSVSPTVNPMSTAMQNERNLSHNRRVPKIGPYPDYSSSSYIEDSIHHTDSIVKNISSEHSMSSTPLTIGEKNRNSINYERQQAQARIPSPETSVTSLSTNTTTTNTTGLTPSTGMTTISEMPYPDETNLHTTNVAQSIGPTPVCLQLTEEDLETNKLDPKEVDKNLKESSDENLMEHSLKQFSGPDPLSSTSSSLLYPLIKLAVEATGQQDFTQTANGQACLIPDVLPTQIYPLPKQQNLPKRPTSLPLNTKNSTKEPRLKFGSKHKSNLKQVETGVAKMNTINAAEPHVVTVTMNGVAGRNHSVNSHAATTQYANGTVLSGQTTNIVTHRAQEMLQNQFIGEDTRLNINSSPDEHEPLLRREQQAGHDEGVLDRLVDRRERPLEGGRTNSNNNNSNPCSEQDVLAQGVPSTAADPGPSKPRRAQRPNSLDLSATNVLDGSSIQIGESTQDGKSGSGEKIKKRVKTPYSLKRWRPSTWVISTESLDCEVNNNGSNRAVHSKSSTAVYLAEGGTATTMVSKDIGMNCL

[5] = target: SRSF protein kinase 2 (Homo sapiens) (UniProt P78362); details: Compound concentration 1000.0 nM
[6] = target: Ephrin type-A receptor 5 (Homo sapiens) (UniProt P54756); details: Compound concentration 1000.0 nM
[7] = tested on: Serine/threonine-protein kinase B-raf (Homo sapiens), P15056 [V600E]; details: Compound concentration 1000.0 nM
[8] = target: Phosphatidylinositol 4,5-bisphosphate 3-kinase catalytic subunit alpha isoform (Homo sapiens) (UniProt P42336); details: Compound concentration 1000.0 nM
[9] = target: Serine/threonine-protein kinase Nek2 (Homo sapiens) (UniProt P51955); details: Compound concentration 1000.0 nM
[10] = target: Mitogen-activated protein kinase kinase kinase kinase 2 (Homo sapiens) (UniProt Q12851); details: Compound concentration 1000.0 nM
[11] = target: Tyrosine-protein kinase ITK/TSK (Homo sapiens) (UniProt Q08881); details: Compound concentration 1000.0 nM
[12] = target: Serine/threonine-protein kinase DCLK2 (Homo sapiens) (UniProt Q8N568); details: Compound concentration 1000.0 nM
[13] = target: Mitogen-activated protein kinase kinase kinase 19 (Homo sapiens) (UniProt Q56UN5); details: Compound concentration 1000.0 nM
[14] = target: Activin receptor type-1B (Homo sapiens) (UniProt P36896); details: Compound concentration 1000.0 nM
[15] = tested on: Hepatocyte growth factor receptor (Homo sapiens), P08581 [Y1235D]; details: Compound concentration 1000.0 nM
[16] = target: Proto-oncogene tyrosine-protein kinase receptor Ret (Homo sapiens) (UniProt P07949); details: Compound concentration 1000.0 nM
[17] = target: Glycogen synthase kinase-3 alpha (Homo sapiens) (UniProt P49840); details: Compound concentration 1000.0 nM
[18] = target: T1, Alpha-1A adrenergic receptor (Homo sapiens) (UniProt P35348); details: Compound concentration 10.0 uM
T1 sequence (whole entry): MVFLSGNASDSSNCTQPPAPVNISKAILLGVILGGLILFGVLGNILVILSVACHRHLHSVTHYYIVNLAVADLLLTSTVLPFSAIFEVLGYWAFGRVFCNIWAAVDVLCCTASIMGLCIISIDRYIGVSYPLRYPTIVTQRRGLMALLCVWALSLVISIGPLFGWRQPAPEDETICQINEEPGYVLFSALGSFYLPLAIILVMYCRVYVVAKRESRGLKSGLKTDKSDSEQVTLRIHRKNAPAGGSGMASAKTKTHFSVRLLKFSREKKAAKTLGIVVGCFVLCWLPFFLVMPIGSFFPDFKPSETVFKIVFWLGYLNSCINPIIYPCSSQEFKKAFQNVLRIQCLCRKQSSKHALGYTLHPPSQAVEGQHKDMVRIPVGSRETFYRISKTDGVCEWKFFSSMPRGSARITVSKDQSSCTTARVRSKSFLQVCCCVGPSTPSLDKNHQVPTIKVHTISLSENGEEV

[19] = target: Serine/threonine-protein kinase DCLK1 (Homo sapiens) (UniProt O15075); details: Compound concentration 1000.0 nM
[20] = target: Serine/threonine-protein kinase PAK 4 (Homo sapiens) (UniProt O96013); details: Compound concentration 1000.0 nM
[21] = target: Serine/threonine-protein kinase SIK2 (Homo sapiens) (UniProt Q9H0K1); details: Compound concentration 1000.0 nM
Serine/threonine-protein kinase SIK2 (Homo sapiens), sequence (Q9H0K1 whole entry, looked up): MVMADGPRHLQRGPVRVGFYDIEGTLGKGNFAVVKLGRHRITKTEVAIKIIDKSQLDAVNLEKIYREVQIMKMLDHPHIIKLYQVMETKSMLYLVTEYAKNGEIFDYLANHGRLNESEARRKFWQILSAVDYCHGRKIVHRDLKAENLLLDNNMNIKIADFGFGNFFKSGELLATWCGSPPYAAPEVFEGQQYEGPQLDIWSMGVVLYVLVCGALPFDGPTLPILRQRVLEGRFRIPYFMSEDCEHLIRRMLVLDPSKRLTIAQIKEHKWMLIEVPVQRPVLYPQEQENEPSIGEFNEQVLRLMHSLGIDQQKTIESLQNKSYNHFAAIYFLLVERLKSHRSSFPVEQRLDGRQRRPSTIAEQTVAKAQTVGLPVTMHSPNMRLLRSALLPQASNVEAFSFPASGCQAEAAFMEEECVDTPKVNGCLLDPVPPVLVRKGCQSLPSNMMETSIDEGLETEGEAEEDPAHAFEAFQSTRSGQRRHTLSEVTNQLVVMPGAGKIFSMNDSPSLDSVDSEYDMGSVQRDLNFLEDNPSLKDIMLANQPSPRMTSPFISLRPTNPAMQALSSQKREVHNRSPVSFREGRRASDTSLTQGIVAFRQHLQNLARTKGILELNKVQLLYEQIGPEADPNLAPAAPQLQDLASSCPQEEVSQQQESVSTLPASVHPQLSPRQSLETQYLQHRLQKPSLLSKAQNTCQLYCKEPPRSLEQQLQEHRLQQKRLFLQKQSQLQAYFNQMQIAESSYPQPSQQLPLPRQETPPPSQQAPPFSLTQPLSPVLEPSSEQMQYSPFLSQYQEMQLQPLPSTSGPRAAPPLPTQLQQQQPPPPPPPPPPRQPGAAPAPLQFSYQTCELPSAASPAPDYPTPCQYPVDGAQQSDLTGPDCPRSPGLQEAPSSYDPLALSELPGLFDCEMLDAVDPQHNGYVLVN

[22] = target: Serine/threonine-protein kinase MRCK beta (Homo sapiens) (UniProt Q9Y5S2); details: Compound concentration 1000.0 nM
[23] = target: Dual specificity tyrosine-phosphorylation-regulated kinase 2 (Homo sapiens) (UniProt Q92630); details: Compound concentration 1000.0 nM
Dual specificity tyrosine-phosphorylation-regulated kinase 2 (Homo sapiens), sequence (Q92630 whole entry): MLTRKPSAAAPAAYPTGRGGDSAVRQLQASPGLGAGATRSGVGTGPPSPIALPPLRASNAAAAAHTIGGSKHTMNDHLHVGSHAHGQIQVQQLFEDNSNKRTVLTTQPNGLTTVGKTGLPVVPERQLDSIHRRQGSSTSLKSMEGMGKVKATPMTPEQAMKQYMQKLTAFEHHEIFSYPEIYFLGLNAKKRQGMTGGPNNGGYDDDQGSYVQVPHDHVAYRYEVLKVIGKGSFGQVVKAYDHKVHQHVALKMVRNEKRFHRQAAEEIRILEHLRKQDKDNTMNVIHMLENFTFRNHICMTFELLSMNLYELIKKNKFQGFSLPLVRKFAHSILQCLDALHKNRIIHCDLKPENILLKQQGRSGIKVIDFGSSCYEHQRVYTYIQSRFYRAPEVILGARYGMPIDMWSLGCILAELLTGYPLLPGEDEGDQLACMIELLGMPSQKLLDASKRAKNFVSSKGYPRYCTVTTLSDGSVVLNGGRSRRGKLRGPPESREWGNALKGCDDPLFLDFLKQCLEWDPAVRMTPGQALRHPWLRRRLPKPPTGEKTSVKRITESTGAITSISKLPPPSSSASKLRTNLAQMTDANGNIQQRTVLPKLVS

[24] = target: Interferon-induced, double-stranded RNA-activated protein kinase (Homo sapiens) (UniProt P19525); details: Compound concentration 1000.0 nM
[25] = target: Aurora kinase A (Homo sapiens) (UniProt O14965); details: Compound concentration 1000.0 nM
[26] = target: Bone morphogenetic protein receptor type-1A (Homo sapiens) (UniProt P36894); details: Compound concentration 1000.0 nM
Bone morphogenetic protein receptor type-1A (Homo sapiens), sequence (P36894 whole entry): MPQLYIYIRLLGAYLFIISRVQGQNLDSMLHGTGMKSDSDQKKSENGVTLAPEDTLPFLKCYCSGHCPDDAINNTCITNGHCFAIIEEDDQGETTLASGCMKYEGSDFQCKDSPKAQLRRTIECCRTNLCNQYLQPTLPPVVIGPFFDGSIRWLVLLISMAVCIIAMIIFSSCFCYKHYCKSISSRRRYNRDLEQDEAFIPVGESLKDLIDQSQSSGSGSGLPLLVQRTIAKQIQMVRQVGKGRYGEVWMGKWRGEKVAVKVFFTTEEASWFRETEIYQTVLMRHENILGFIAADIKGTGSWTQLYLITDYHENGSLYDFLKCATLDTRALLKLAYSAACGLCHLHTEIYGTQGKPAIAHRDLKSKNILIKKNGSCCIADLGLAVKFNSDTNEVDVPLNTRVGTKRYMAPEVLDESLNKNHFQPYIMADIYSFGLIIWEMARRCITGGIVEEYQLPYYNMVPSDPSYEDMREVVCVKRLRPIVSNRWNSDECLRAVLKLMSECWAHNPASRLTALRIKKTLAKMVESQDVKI

[27] = target: Wee1-like protein kinase 2 (Homo sapiens) (UniProt P0C1S8); details: Compound concentration 1000.0 nM
Wee1-like protein kinase 2 (Homo sapiens), sequence (P0C1S8 whole entry, looked up): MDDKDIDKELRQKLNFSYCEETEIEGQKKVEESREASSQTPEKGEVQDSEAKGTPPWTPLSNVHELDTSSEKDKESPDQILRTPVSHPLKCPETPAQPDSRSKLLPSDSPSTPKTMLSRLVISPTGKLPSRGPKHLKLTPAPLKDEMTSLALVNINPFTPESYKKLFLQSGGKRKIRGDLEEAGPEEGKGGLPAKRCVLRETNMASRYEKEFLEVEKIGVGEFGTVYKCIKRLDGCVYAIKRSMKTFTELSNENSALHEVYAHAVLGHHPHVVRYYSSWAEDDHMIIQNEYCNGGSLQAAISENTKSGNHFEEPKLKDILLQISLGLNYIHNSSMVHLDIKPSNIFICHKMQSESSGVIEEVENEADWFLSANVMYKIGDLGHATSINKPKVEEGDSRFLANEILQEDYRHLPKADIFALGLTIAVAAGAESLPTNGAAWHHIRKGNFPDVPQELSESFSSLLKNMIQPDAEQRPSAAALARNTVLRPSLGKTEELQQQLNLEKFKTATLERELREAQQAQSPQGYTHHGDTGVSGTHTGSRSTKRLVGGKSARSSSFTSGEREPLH

[28] = target: Serine/threonine-protein kinase Nek7 (Homo sapiens) (UniProt Q8TDX7); details: Compound concentration 1000.0 nM
[29] = target: Epidermal growth factor receptor (Homo sapiens) (UniProt P00533); details: Compound concentration 1000.0 nM
[30] = target: Insulin-like growth factor 1 receptor (Homo sapiens) (UniProt P08069); details: Compound concentration 1000.0 nM
[31] = target: Serine/threonine-protein kinase TAO2 (Homo sapiens) (UniProt Q9UL54); details: Compound concentration 1000.0 nM
[32] = target: MAP kinase-activated protein kinase 2 (Homo sapiens) (UniProt P49137); details: Compound concentration 1000.0 nM
[33] = tested on: Tyrosine-protein kinase ABL1 (Homo sapiens), P00519 [H396P]; details: Compound concentration 1000.0 nM
[34] = target: SRSF protein kinase 3 (Homo sapiens) (UniProt Q9UPE1); details: Compound concentration 1000.0 nM
[35] = target: Protein kinase C delta type (Homo sapiens) (UniProt Q05655); details: Compound concentration 1000.0 nM
Protein kinase C delta type (Homo sapiens), sequence (Q05655 whole entry, looked up): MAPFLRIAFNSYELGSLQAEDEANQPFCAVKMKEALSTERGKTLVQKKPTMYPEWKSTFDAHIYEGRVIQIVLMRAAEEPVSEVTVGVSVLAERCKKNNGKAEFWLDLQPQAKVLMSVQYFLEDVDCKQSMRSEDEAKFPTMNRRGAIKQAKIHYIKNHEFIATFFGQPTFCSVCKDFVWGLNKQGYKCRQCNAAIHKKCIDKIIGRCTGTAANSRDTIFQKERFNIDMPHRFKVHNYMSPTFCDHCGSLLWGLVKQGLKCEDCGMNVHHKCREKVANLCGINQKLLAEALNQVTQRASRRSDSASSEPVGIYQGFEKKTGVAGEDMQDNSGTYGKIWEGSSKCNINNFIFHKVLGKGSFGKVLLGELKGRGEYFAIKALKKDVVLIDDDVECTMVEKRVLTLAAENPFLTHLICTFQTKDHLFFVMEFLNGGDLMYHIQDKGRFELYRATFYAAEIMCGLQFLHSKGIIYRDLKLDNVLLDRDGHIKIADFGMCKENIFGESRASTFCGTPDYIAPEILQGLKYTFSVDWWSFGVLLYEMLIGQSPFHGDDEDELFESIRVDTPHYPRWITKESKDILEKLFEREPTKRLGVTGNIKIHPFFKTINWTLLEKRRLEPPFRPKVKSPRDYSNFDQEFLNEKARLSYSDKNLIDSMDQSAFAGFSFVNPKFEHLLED

[36] = target: Follicle-stimulating hormone receptor (Homo sapiens, UniProt P23945); test: Cell-based assay (FSH Antagonism)
[37] = target: Protein kinase C epsilon type (Homo sapiens) (UniProt Q02156); details: Compound concentration 1000.0 nM
[38] = target: RAC-beta serine/threonine-protein kinase (Homo sapiens) (UniProt P31751); details: Compound concentration 1000.0 nM
[39] = target: Sigma intracellular receptor 2 (Homo sapiens, UniProt Q5BJF2); details: Compound concentration 10.0 uM
Sigma intracellular receptor 2, sequence (Q5BJF2 whole entry): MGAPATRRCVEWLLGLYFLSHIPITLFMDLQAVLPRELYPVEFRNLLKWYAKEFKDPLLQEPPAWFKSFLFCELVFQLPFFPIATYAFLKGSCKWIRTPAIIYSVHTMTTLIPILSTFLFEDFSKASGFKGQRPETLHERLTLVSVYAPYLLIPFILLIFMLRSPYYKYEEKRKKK

Serine/threonine-protein kinase NLK (Homo sapiens), sequence (Q9UBE8 whole entry): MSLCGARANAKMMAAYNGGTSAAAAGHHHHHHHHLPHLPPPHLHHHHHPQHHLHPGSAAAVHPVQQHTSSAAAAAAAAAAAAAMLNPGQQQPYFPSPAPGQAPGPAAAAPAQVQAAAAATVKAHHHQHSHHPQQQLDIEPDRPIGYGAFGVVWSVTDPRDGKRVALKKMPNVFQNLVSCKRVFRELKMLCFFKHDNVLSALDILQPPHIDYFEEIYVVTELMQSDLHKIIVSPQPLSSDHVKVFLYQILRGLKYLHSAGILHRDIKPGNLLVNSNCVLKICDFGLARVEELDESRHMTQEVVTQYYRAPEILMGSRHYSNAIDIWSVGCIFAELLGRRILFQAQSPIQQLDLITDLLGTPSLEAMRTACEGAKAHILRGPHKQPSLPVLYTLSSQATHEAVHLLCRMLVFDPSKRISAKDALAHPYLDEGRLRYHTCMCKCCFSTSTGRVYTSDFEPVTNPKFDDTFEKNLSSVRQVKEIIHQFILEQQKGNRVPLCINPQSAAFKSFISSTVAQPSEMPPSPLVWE

Row | SMILES | residual activity [1] [%] | residual activity [2] [%] | residual activity [3] [%] | residual activity [4] [%] | residual activity [5] [%] | residual activity [6] [%] | residual activity [7] [%] | residual activity [8] [%] | residual activity [9] [%] | residual activity [10] [%] | residual activity [11] [%] | residual activity [12] [%] | residual activity [13] [%] | residual activity [14] [%] | residual activity [15] [%] | residual activity [16] [%] | residual activity [17] [%] | inhibition [18] [%] | residual activity [19] [%] | residual activity [20] [%] | other results
1 | O=C(Nc1cnc(Oc2ccc(F)cc2)nc1)N1CCc2ncccc2[C@@H]1c1ccc(F)cc1 [BAY-899] | 90 | 73 | 91 | 88 | 100 | 100 | 83 | 100 | 92 | 100 | 90 | 90 | 81 | 100 | 93 | 94 | 93 | -3.5 | 83 | 82 | residual activity [21]: 89%; residual activity [22]: 73%; residual activity [23]: 81%; residual activity [24]: 73%; residual activity [25]: 100%; residual activity [26]: 100%; residual activity [27]: 95%; residual activity [28]: 84%; residual activity [29]: 100%; residual activity [30]: 100%; residual activity [31]: 87%; residual activity [32]: 80%; residual activity [33]: 97%; residual activity [34]: 100%; residual activity [35]: 87%; IC50 [36]: > 16 µM (not active); residual activity [37]: 100%; residual activity [38]: 100%; inhibition [39]: 53.2%
2 | O=C(Nc1ccc(Oc2ccc(F)cc2)cc1)N1CCc2ncccc2[C@H]1c1ccc(F)cc1 [BAY-897] | 100 | 87 | 99 | 96 | 100 | 100 | 93 | 83 | 93 | 95 | 96 | 87 | 88 | 94 | 86 | 94 | 95 | 16.2 | 100 | 94 | residual activity [21]: 100%; residual activity [22]: 88%; residual activity [23]: 84%; residual activity [24]: 100%; residual activity [25]: 100%; residual activity [26]: 100%; residual activity [27]: 100%; residual activity [28]: 82%; residual activity [29]: 100%; residual activity [30]: 100%; residual activity [31]: 100%; residual activity [32]: 98%; residual activity [33]: 98%; residual activity [34]: 100%; residual activity [35]: 100%; IC50 [36]: > 16 µM (not active); residual activity [37]: 100%; residual activity [38]: 96%; inhibition [39]: 80.8%
